Patent publication US20250382332A1, “NOVEL ALPHA-FACTOR BASED PEPTIDES WITH ANTIFUNGAL ACTIVITY” (INVAIO SCIENCES, INC., priority 2024, published 2025)
Peptide text beside a SMILES is read from it.

Test system: Botrytis cinerea (B05.10)
Experiment: Resazurin antifungal assay of 180 alpha-factor peptide variants towards Botrytis (Example 2)
Assay type: cell-based
Settings: % inhibition of fungal growth, Botrytis conidia, resazurin; for Inhibition at 50 μM: peptide 50 μM; for Inhibition at 100 μM: peptide 100 μM
Procedure, shortened: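 Resazurin viability read-out (570/620 nm fluorescence) after a 24 h, 20° C incubation of B05.10 conidia, 5000 per well, with peptide at final 10-100 μM. Growth inhibition (%) was derived by subtracting conidia-only fluorescence; four replicates per treatment.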

CSCC[C@H](NC(=O)[C@@H]1CCCN1C(=O)[C@H](CCC(N)=O)NC(=O)CNC(=O)[C@H](CCCNC(=N)N)NC(=O)[C@H](CCC(N)=O)NC(=O)[C@H](Cc1ccccc1)NC(=O)[C@H](CCC(=O)O)NC(=O)[C@H](CC(C)C)NC(=O)[C@H](Cc1c[nH]c2ccccc12)NC(=O)[C@H](Cc1c[nH]cn1)NC(=O)[C@@H](N)Cc1c[nH]c2ccccc12)C(=O)N[C@@H](Cc1ccc(O)cc1)C(=O)O [compound 167] (H-WHWLEFQRGQPMY-OH; N-terminus and C-terminus assumed)
Inhibition at 50 μM: <90% | Inhibition at 100 μM: <90%

CSCC[C@H](NC(=O)[C@@H]1CCCN1C(=O)[C@H](CCC(N)=O)NC(=O)CNC(=O)[C@@H]1CCCN1C(=O)[C@H](Cc1c[nH]cn1)NC(=O)[C@H](CC(C)C)NC(=O)[C@H](CCC(N)=O)NC(=O)[C@@H](NC(=O)[C@H](CC(C)C)NC(=O)[C@H](Cc1c[nH]cn1)NC(=O)[C@@H](N)CCCCN)C(C)C)C(=O)N[C@@H](Cc1ccc(O)cc1)C(=O)O [compound 168] (H-KHLVQLHPGQPMY-OH; N-terminus and C-terminus assumed)
Inhibition at 50 μM: <90% | Inhibition at 100 μM: <90%

CC[C@H](C)[C@H](NC(=O)[C@@H](NC(=O)[C@H](Cc1c[nH]cn1)NC(=O)[C@@H]1CCCN1)[C@@H](C)O)C(=O)N[C@@H](CCC(N)=O)C(=O)N[C@@H](CC(C)C)C(=O)N[C@@H](Cc1c[nH]c2ccccc12)C(=O)N[C@@H](CCCCN)C(=O)NCC(=O)N[C@@H](CCC(N)=O)C(=O)N1CCC[C@H]1C(=O)N[C@@H](CCSC)C(=O)N[C@@H](Cc1ccc(O)cc1)C(=O)O [compound 169] (H-PHTIQLWKGQPMY-OH; N-terminus and C-terminus assumed)
Inhibition at 50 μM: <90% | Inhibition at 100 μM: <90%

CSCC[C@H](NC(=O)[C@H](Cc1c[nH]cn1)NC(=O)[C@@H](N)Cc1c[nH]c2ccccc12)C(=O)N[C@@H](CC(C)C)C(=O)N[C@H](C(=O)N[C@@H](Cc1ccccc1)C(=O)N[C@@H](CCCCN)C(=O)N1CCC[C@H]1C(=O)NCC(=O)N[C@@H](CCC(N)=O)C(=O)N1CCC[C@H]1C(=O)N[C@@H](CCSC)C(=O)N[C@@H](Cc1ccc(O)cc1)C(=O)O)[C@@H](C)O [compound 170] (H-WHMLTFKPGQPMY-OH; N-terminus and C-terminus assumed)
Inhibition at 50 μM: <90% | Inhibition at 100 μM: <90%

CSCC[C@H](NC(=O)[C@@H]1CCCN1C(=O)[C@H](CCC(=O)O)NC(=O)CNC(=O)[C@@H]1CCCN1C(=O)[C@H](CCCCN)NC(=O)[C@H](Cc1ccccc1)NC(=O)[C@H](CCC(N)=O)NC(=O)CNC(=O)[C@H](CC(C)C)NC(=O)[C@H](Cc1c[nH]cn1)NC(=O)[C@@H](N)Cc1c[nH]c2ccccc12)C(=O)N[C@@H](Cc1ccc(O)cc1)C(=O)O [compound 171] (H-WHLGQFKPGEPMY-OH; N-terminus and C-terminus assumed)
Inhibition at 50 μM: <90% | Inhibition at 100 μM: <90%

CSCC[C@H](NC(=O)[C@@H]1CCCN1C(=O)[C@H](CCSC)NC(=O)CNC(=O)[C@H](CO)NC(=O)[C@H](CCCCN)NC(=O)[C@H](CC(C)C)NC(=O)[C@H](C)NC(=O)CNC(=O)[C@H](Cc1c[nH]c2ccccc12)NC(=O)[C@H](CO)NC(=O)[C@@H](N)Cc1c[nH]c2ccccc12)C(=O)N[C@@H](Cc1ccc(O)cc1)C(=O)O [compound 172] (H-WSWGALKSGMPMY-OH; N-terminus and C-terminus assumed)
Inhibition at 50 μM: <90% | Inhibition at 100 μM: <90%

CSCC[C@H](NC(=O)[C@@H]1CCCN1C(=O)[C@H](CCC(N)=O)NC(=O)CNC(=O)[C@H](CC(N)=O)NC(=O)[C@H](CCCCN)NC(=O)[C@H](CC(C)C)NC(=O)[C@H](CCC(N)=O)NC(=O)[C@@H](NC(=O)[C@H](Cc1c[nH]c2ccccc12)NC(=O)[C@H](Cc1c[nH]cn1)NC(=O)[C@@H]1CCCN1)C(C)C)C(=O)N[C@@H](Cc1ccc(O)cc1)C(=O)O [compound 173] (H-PHWVQLKNGQPMY-OH; N-terminus and C-terminus assumed)
Inhibition at 50 μM: <90% | Inhibition at 100 μM: <90%

CSCC[C@H](NC(=O)[C@@H]1CCCN1C(=O)[C@H](CCC(N)=O)NC(=O)CNC(=O)[C@@H]1CCCN1C(=O)[C@H](Cc1c[nH]cn1)NC(=O)[C@H](CC(C)C)NC(=O)[C@H](CCC(N)=O)NC(=O)[C@@H](NC(=O)[C@H](CO)NC(=O)[C@H](Cc1c[nH]cn1)NC(=O)[C@@H](N)Cc1c[nH]c2ccccc12)C(C)C)C(=O)N[C@@H](Cc1ccc(O)cc1)C(=O)O [compound 174] (H-WHSVQLHPGQPMY-OH; N-terminus and C-terminus assumed)
Inhibition at 50 μM: <90% | Inhibition at 100 μM: <90%

CC[C@H](C)[C@H](NC(=O)[C@H](Cc1c[nH]c2ccccc12)NC(=O)[C@H](CCCCN)NC(=O)[C@@H](N)CCCCN)C(=O)N[C@@H](CCC(N)=O)C(=O)N[C@@H](CC(C)C)C(=O)N[C@@H](CCCCN)C(=O)N1CCC[C@H]1C(=O)NCC(=O)N[C@@H](CCC(=O)O)C(=O)N1CCC[C@H]1C(=O)N[C@@H](CCSC)C(=O)N[C@@H](Cc1ccc(O)cc1)C(=O)O [compound 175] (H-KKWIQLKPGEPMY-OH; N-terminus and C-terminus assumed)
Inhibition at 50 μM: <90% | Inhibition at 100 μM: <90%

CSCC[C@H](NC(=O)[C@@H]1CCCN1C(=O)[C@H](CO)NC(=O)CNC(=O)[C@H](CCCNC(=N)N)NC(=O)[C@H](CCCCN)NC(=O)[C@H](CC(C)C)NC(=O)[C@H](CC(N)=O)NC(=O)[C@@H](NC(=O)[C@H](CC(=O)O)NC(=O)[C@H](Cc1c[nH]cn1)NC(=O)[C@@H](N)Cc1c[nH]c2ccccc12)C(C)C)C(=O)N[C@@H](Cc1ccc(O)cc1)C(=O)O [compound 176] (H-WHDVNLKRGSPMY-OH; N-terminus and C-terminus assumed)
Inhibition at 50 μM: <90% | Inhibition at 100 μM: <90%

CSCC[C@H](NC(=O)[C@@H]1CCCN1C(=O)[C@H](CCC(N)=O)NC(=O)CNC(=O)[C@@H]1CCCN1C(=O)[C@H](CCCCN)NC(=O)[C@H](Cc1ccccc1)NC(=O)[C@H](CCC(=O)O)NC(=O)[C@H](CC(C)C)NC(=O)[C@@H](NC(=O)[C@H](Cc1c[nH]cn1)NC(=O)[C@@H](N)CCCCN)[C@@H](C)O)C(=O)N[C@@H](Cc1ccc(O)cc1)C(=O)O [compound 177] (H-KHTLEFKPGQPMY-OH; N-terminus and C-terminus assumed)
Inhibition at 50 μM: <90% | Inhibition at 100 μM: <90%

CSCC[C@H](NC(=O)[C@@H]1CCCN1C(=O)[C@H](CCC(N)=O)NC(=O)CNC(=O)[C@@H]1CCCN1C(=O)[C@H](Cc1c[nH]c2ccccc12)NC(=O)[C@H](Cc1ccccc1)NC(=O)[C@H](CCC(N)=O)NC(=O)[C@@H](NC(=O)[C@H](CO)NC(=O)[C@H](Cc1c[nH]cn1)NC(=O)[C@@H](N)Cc1c[nH]c2ccccc12)C(C)C)C(=O)N[C@@H](Cc1ccc(O)cc1)C(=O)O [compound 178] (H-WHSVQFWPGQPMY-OH; N-terminus and C-terminus assumed)
Inhibition at 50 μM: <90% | Inhibition at 100 μM: 97.30%

CSCC[C@H](NC(=O)[C@@H]1CCCN1C(=O)[C@H](CCC(N)=O)NC(=O)CNC(=O)[C@@H]1CCCN1C(=O)[C@H](CCCCN)NC(=O)[C@H](CC(C)C)NC(=O)[C@H](CCC(=O)O)NC(=O)[C@H](CC(C)C)NC(=O)[C@H](Cc1ccccc1)NC(=O)[C@H](Cc1c[nH]cn1)NC(=O)[C@@H](N)CCCCN)C(=O)N[C@@H](Cc1ccc(O)cc1)C(=O)O [compound 179] (H-KHFLELKPGQPMY-OH; N-terminus and C-terminus assumed)
Inhibition at 50 μM: <90% | Inhibition at 100 μM: <90%

CC[C@H](C)[C@H](NC(=O)[C@H](CCCCN)NC(=O)[C@H](CC(C)C)NC(=O)[C@H](C)NC(=O)[C@H](CC(C)C)NC(=O)[C@H](CC(=O)O)NC(=O)[C@H](Cc1c[nH]cn1)NC(=O)[C@@H](N)CCCCN)C(=O)NCC(=O)N[C@@H](CCC(N)=O)C(=O)N1CCC[C@H]1C(=O)N[C@@H](CCSC)C(=O)N[C@@H](Cc1ccc(O)cc1)C(=O)O [compound 180] (H-KHDLALKIGQPMY-OH; N-terminus and C-terminus assumed)
Inhibition at 50 μM: <90% | Inhibition at 100 μM: <90%
